Data from patent US3952101A, “α-Amino methyl-5-hydroxy-2-pyridinemethanols” (SmithKline Corporation, priority 1975, dated 1976).
Converted amounts (≈) assume the structure as drawn.

How the values were obtained:
[1] = tested on: guinea pig tracheal chain preparations; assay: effect on spontaneous tone of guinea pig tracheal chain preparations (β-stimulant direct relaxant effect on airway smooth muscle); type: cell-based
Source text: (§1) Two in vitro test systems used for determining selective β-stimulant activity are: (1) effect on spontaneous tone of guinea pig tracheal chain preparations as a measure of β-stimulant (direct relaxant) effect on airway smooth muscle, and (2) effect on rate of spontaneously beating right atria of the guinea pig as a measure of β-stimulant effect on cardiac muscle.

guinea pig right atria = assay: effect on rate of spontaneously beating right atria of the guinea pig (β-stimulant effect on cardiac muscle); type: cell-based; conditions: Cavia porcellus; in vitro, at a dose of 30.0 mcg/ml; read-out: increase in the rate of contraction of guinea pig right atria
Source text: as §1

## CC(C)NCC(O)c1ccc(O)c(O)c1 (stereo not drawn) [d,1-isoproterenol, reference compound]
[1]; tracheal versus right atria activity, similar in vitro preparations
  absolute separation ratio: 0.5

## CC(C)(C)NCC(O)c1ccc(O)c(CS(C)(=O)=O)n1 (stereo not drawn) [α-(t-butylaminomethyl)-5-hydroxy-6-methanesulfonylmethyl-2-pyridinemethanol]
Guinea pig right atria
  activation at 30 µg/mL: 13%
[1]; Cavia porcellus, in vitro, spontaneous tone, read-out: ED50, relaxes the spontaneous tone of guinea pig tracheal ring preparation
  EC50: 8.8 ng/mL (≈ 0.0291 µM)
